Measured values as given in PubChem BioAssay AID1419 (Emory University Molecular Libraries Screening Center, 2008).
The source made the active and inactive calls. The rule behind the calls is not given here.

Assay: blockers of an Epstein-Barr virus protein-peptide interaction – biochemical, fluorescence polarization, dose response (AID 1419)
Details: cell-free protein-peptide binding, 2 h; for fold change: measured here: P channel fold over control, at 54 µM

Structure (SMILES)	IC50	fold change
C/C=C/C=C/[C@H]1Cc2cc(O)cc(O)c2O1	13 µM	2.04
COc1cc(/C=N/c2oc(-c3ccccc3)cc2C#N)ccc1O	15.5 µM	10.2
CCOc1ccc(NC(=O)c2cc3c(C)nc4ccccc4c3o2)cc1	> 54 µM (inactive)	0.947
CN1/C(=C/C=C(C#N)C#N)C(C)(C)c2ccccc21	> 54 µM (inactive)	1.64
C#CCn1cc(C=C2C(=O)c3ccccc3C2=O)c2ccccc21	9.87 µM	4.31
CCN1CC=C2C(C#N)=C(N)C(C#N)(C#N)[C@H](c3ccoc3)[C@H]2C1	7.47 µM	3.84
N#Cc1c(SCC(N)=O)nc2c(c1-c1ccc(O)cc1)CCCC2	> 54 µM (inactive)	0.89
Cc1ccc(C)c2nc3sc(C(=O)N4CCCc5ccccc54)c(N)c3cc12	1.24 µM	11.6
Nc1c(C(=O)NC2CC2)sc2nc3c(c(-c4ccco4)c12)CC/C3=C/c1ccco1	1.32 µM	3.52
CN(C)c1ccc(N=Cc2nc(-c3ccccc3)oc2O)cc1	6.01 µM	21.1
CCN(CC)c1ccc(N=Cc2c(O)n(-c3ccc(OC)cc3)c(=O)[nH]c2=O)cc1	6.01 µM	17.1
COC(=O)c1c(Cl)c2n3ccccc3c(C)c(-c3ccccc3)c-2c1C(=O)OC	2.39 µM	2.2
CN(C)c1ccc(/C=C2\CCC/C(=C\c3ccccc3)C2=O)cc1	14.5 µM	10.6
CC1CCc2c(sc3nc(CN4CCOCC4)nc(NS(=O)(=O)c4cccc([N+](=O)[O-])c4)c23)C1 (stereo not given)	> 54 µM (inactive)	1.13
N#CC1CC(c2ccc([N+](=O)[O-])cc2)=NN1c1ccc([N+](=O)[O-])cc1 (stereo not given)	3.86 µM	6.23
Cc1n[nH]c(C)c1N1C(=O)c2cccc3c(N4CCCCCC4)ccc(c23)C1=O	< 0.42 µM	88.6
O=C(N/N=C/c1cccc(F)c1)c1cc(-c2ccco2)nc2ccccc12	3.61 µM	1.06
COC(=O)c1ccccc1NC(=O)CCS(=O)(=O)c1ccc(Br)cc1	12.2 µM	1.08
CN(C)c1cccc(C(=O)OCc2cc(=O)oc3cc(O)ccc23)c1	> 54 µM (inactive)	1.01
O=C(CCN1CCN(c2ccccc2)CC1)N/N=C/c1ccc(O)c(O)c1O	> 54 µM (inactive)	1.01
CC1(C)CC(=O)C2=C(C1)OC(N)=C(C#N)C2c1cc2c(cc1[N+](=O)[O-])OCO2 (stereo not given)	2.04 µM	3.34
COc1ccc(Cc2nnc(NC(=O)Cc3cccs3)s2)cc1	> 54 µM (inactive)	1.04
O=C(c1ccc2nc(-c3ccco3)c(-c3ccco3)nc2c1)N1CCN(c2ncccn2)CC1	> 54 µM (inactive)	1.05
COc1ccc(OC)c(/C=C2\SC(=S)N(Cc3cccnc3)C2=O)c1	6.71 µM	5.16
O=C1NC(=Nc2ccc(Cl)cc2)/C(=C/c2ccco2)S1	7.25 µM	0.667
O=c1c(/C=C(\O)c2ccccc2)nc2ccccc2n1-c1ccccc1	14.1 µM	27.6
CC(C)c1ccc(/C=C/C(=O)n2nnc3ccccc32)cc1	> 54 µM (inactive)	0.857

Structure (SMILES)	IC50	fold change
Cc1nn(C)c(C)c1CN(C)C(=O)C1c2ccccc2Oc2ccccc21	3.77 µM	4.27
Cc1ccc[n+](-c2nc([O-])sc2C=O)c1	0.65 µM	44.1
O=c1nc2c(O)cccn2c2c1c(=O)[nH]c1ccccc12	< 0.42 µM	7.35
Nc1ccc2nc3c(=O)[nH]c(=S)[nH]c3nc2c1	< 0.42 µM	86.2
O=C(CSc1nc(-c2ccc(F)cc2)nc2c1Cc1ccccc1O2)Nc1cccc(C(=O)O)c1	1.63 µM	1.13
CCO[C@H]1OC(C(=O)N2CCCCCCC2)=C[C@@H](c2ccc(C(F)(F)F)cc2)[C@@H]1CCCO	> 54 µM (inactive)	0.95
CCOC(=O)c1c(Nc2ccccc2N)cc(C)nc1C	> 54 µM (inactive)	0.997
COc1cc(C2C(C#N)=C(N)OC3=C2C(=O)CC(C)(C)C3)c([N+](=O)[O-])cc1OC (stereo not given)	6.61 µM	1.98
Cc1ccc2cc3c(N)c4c(C)ccc(C)c4nc3nc2c1	0.92 µM	6.77
CSc1nc(SCC(=O)O)c2sc3nc(-c4ccccc4)c4c(c3c2n1)CCC4	3.47 µM	1.08
O=C(N/N=C/c1ccc(Cl)cc1)c1nc2ccc([N+](=O)[O-])cc2c(=O)[nH]1	> 54 µM (inactive)	1.04
Cc1ccccc1-n1c(SCc2c(C)noc2C)nnc1-c1cccnc1	3.57 µM	4.88
COc1ccc2c(c1)c1nc3ccccc3nc1n2CC(=O)OC(C)C	1.21 µM	6.79
Nn1c(SCC(=O)NC(=O)NCc2ccco2)nnc1-c1ccc(OC(F)F)cc1	31.1 µM (inactive)	1.09
Cc1ccnc(N2C(=O)c3cccc4c([N+](=O)[O-])ccc(c34)C2=O)c1	3.48 µM	2.33
CCN(CC)c1ccc2c(c1)oc(=O)c1c(Cl)cc(=O)oc12	6.37 µM	11.9
S=C(Nc1ccc2nc(-c3ccccn3)c(-c3ccccn3)nc2c1)N1CCCCC1	> 54 µM (inactive)	1.3
O=C1c2cccc3c([N+](=O)[O-])ccc(c23)C(=O)N1Cc1cccnc1	> 54 µM (inactive)	5.08
O=[N+]([O-])c1cc(/C=N\Nc2nccs2)ccc1O	1.31 µM	1.07
COc1ccc(/C(O)=C/c2nc3ccccc3n(-c3ccccc3)c2=O)cc1	> 54 µM (inactive)	17
CCN(CC)c1ccc(/C=C(/C#N)c2nc3ccc(C)cc3[nH]2)c(OC(C)C)c1	1.51 µM	22
O=[N+]([O-])c1ccc(-c2cn3nc(-c4ccccc4)c(-c4ccccc4)nc3n2)cc1	3.58 µM	21.1
NC(=S)n1[nH]c(-c2ccc([N+](=O)[O-])cc2)c(N=Nc2cccc([N+](=O)[O-])c2)c1=O	3.71 µM	1.14
c1ccc(-c2ccnc3nc(N4CCN(c5ccccc5)CC4)nn23)cc1	> 54 µM (inactive)	0.987
CN1CCc2cc3c(c4c2[C@H]1[C@H](O)c1ccccc1-4)OCO3	10.3 µM	2.19
COc1nc(N/N=C/c2ccc(-c3cccc([N+](=O)[O-])c3)o2)nc(N2CCOCC2)n1	24.2 µM	0.463
C=CCN1C(=O)/C(=C/c2ccc(N(C)C)cc2)S/C1=N\c1nnc(CC)s1	9.51 µM	10.2

Structure (SMILES)	IC50	fold change
CCOC(=O)C1CCN(C(=O)Nc2ccc3nc(-c4ccco4)c(-c4ccco4)nc3c2)CC1	5.89 µM	2.82
COc1ccc2c(c1)c1nc3ccccc3nc1n2Cc1ccc(OC)c(OC)c1	> 54 µM (inactive)	2
Cc1ccccc1N1C(=O)NC(=O)/C(=C\c2ccc3c(c2)CCCN3Cc2ccccc2)C1=O	3.61 µM	10.3
Cc1oc2cc(O)ccc2c(=O)c1-c1nncn1-c1ccccc1	0.46 µM	10.9
Cc1cc2nc3c(=O)n(C4CCCCC4)c(=O)[nH]c3nc2cc1N	< 0.42 µM	132
Cc1ccc(N=Nc2c(O)n(CN3CCOCC3)c3ccccc23)cc1	2.43 µM	10.9
CCCCCC(=O)N/N=C/c1ccc(N(C)C)cc1	> 54 µM (inactive)	1.05
Cc1cc(/C=C(\C#N)c2nc3ccccc3[nH]2)c(C)n1C	1.32 µM	6.63
Cc1ccccc1N1C(=O)c2cccc3c(N(C)CCO)ccc(c23)C1=O	0.74 µM	14
COc1ccc(C(CC(=O)N2CCOCC2)c2c(OC)cc(OC)c3c(-c4ccccc4)cc(=O)oc23)cc1 (stereo not given)	> 54 µM (inactive)	0.973
CN(C)c1ccnc2sc(C(=O)c3ccc(Br)cc3)c(N)c12	> 54 µM (inactive)	0.973
O=[N+]([O-])c1ccc(/C=N/n2c(CO)nc3ccccc32)s1	22.7 µM	6.56
CCCCCCn1c(=O)[nH]c2nc3cc(N)ccc3nc2c1=O	< 0.42 µM	85.8
CN(C)c1ncnc2c1NC1=C(S2)C(=NCCCC(=O)O)CC(C)(C)C1	5.71 µM	3.35
COc1ccc(N=C2NC(=O)S/C2=C\c2ccc(N(C)C)cc2)cc1	4.75 µM	3.03
COc1ccc(/C=C2\CCCc3c2nc2ccccc2c3C(=O)O)cc1OC	< 0.42 µM	20.3
CCC(=O)Nc1nc2n(n1)C(c1ccc(OC)cc1)C=C(c1ccccc1)N2 (stereo not given)	5.14 µM	2.8
CCN(CC)c1ccc2cc(C(=O)NNC(=O)c3ccc(S(=O)(=O)N4CCCCC4)cc3)c(=O)oc2c1	3.01 µM	87.1
CCOC(=O)C1=NNC(C(=O)c2ccc(Cl)cc2)C1c1ccc(OC)cc1 (stereo not given)	> 54 µM (inactive)	0.933
CC1=CC(=C(C#N)c2nc3ccccc3s2)C=C(C)N1c1ccc(F)cc1	7.09 µM	38.9
COc1cccc(/C(O)=C/c2nc3ccc(C(=O)NCCc4ccc(Cl)cc4)cc3[nH]c2=O)c1	< 0.42 µM	12.1
O=[N+]([O-])c1ccc(-c2nc3ccc([N+](=O)[O-])cc3[nH]2)cc1	> 54 µM (inactive)	1.04
COc1ccc(OC)c(/C=c2\sc3nc(-c4cccs4)nn3c2=O)c1	6.04 µM	5.71
NC(=S)n1[nH]c(-c2ccc([N+](=O)[O-])cc2)c(N=Nc2cccc(Cl)c2)c1=O	3.74 µM	1.19
CC(C)c1nnc(N2C(=O)C(O)=C(C(=O)c3cccs3)C2c2ccccc2)s1 (stereo not given)	< 0.42 µM	4.97
Cn1cc(/C=C2\SC(=S)N(NC(=O)c3cccc(Cl)c3)C2=O)c2ccccc21	4.3 µM	8.23
